Among the data in patent publication US20220073525A1, “COMPOSITIONS FOR INHIBITING UBIQUITIN SPECIFIC PROTEASE 1” (FORMA Therapeutics, Inc., priority 2019, published 2022) are IC50 values, retold here.

The test concerns the target USP1 (Homo sapiens, UniProt O94782). The test can be described thus: Biochemical Assay for USP1 Inhibition (Ub-Rho 110 fluorescence). Conditions: Table 6, additional compounds; 30 min preincubation, Enzyme 0.025 nM, Substrate Ub-Rho 110 25 nM; read-out: IC50. The gist of the method:
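USP1 at 0.025 nM, preincubated 30 min with compound (25 μM to 1.3 nM, 10-point), then Ub-Rho 110 at 25 nM (<<Km) in Tris-HCl pH 8.0, 1 mM GSH, 0.03% BGG, 0.01% Triton X-100. Fluorescence read kinetically over 11 min; % inhibition versus no-enzyme and DMSO controls, IC50 from 4-parameter logistic fit.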

Sequence of USP1 (O94782 whole entry): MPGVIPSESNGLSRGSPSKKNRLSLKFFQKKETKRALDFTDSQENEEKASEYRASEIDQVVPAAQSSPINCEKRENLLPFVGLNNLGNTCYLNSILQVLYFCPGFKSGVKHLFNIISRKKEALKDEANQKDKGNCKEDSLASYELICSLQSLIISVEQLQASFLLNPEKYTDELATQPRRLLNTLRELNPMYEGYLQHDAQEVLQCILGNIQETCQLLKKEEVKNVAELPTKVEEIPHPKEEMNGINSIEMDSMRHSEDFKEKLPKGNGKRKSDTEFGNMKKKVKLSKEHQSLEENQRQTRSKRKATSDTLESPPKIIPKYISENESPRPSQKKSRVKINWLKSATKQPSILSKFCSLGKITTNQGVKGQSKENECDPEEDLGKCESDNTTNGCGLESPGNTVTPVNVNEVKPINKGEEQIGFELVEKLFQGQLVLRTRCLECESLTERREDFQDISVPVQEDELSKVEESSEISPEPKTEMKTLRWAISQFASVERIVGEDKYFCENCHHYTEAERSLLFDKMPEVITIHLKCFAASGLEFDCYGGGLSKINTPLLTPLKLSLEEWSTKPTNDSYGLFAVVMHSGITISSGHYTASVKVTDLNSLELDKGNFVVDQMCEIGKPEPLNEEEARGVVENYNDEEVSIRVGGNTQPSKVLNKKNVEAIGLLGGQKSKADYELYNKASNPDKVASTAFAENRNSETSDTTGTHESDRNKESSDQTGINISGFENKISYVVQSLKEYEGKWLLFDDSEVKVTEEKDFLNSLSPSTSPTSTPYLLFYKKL
Sequence of USP1 (Q8TAF3 whole entry partner): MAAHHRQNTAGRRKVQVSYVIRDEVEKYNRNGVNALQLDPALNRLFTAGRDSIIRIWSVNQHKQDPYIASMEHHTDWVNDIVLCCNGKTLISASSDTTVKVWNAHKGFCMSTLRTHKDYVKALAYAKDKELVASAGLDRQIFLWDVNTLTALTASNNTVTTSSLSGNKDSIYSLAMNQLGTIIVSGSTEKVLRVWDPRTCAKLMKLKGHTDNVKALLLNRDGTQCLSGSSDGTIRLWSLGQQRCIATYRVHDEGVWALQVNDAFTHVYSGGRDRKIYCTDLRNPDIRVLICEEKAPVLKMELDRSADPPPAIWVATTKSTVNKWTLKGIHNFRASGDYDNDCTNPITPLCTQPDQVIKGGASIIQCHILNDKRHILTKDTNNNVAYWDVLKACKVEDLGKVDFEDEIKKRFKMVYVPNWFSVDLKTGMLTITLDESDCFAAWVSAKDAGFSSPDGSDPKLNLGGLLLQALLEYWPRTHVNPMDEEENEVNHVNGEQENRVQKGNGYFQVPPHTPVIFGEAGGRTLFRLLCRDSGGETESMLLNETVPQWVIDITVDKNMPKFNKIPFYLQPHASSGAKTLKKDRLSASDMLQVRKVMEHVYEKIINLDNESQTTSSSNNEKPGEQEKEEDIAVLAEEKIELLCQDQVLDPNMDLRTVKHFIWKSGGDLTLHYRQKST

Regarding `Cc1nc(-c2cccnc2C(C)C)c2n1CCN(c1ccc(-c3nc(C(F)(F)F)cn3C)cc1)C2=O` [Compound C-5, 1-(2-isopropylpyridin-3-yl)-3-methyl-7-(4-(1-methyl-4-(trifluoromethyl)-1H-imidazol-2-yl)phenyl)-6,7-dihydroimidazo[1,5-a]pyrazin-8(5H)-one], the IC50 was more than 25 µM. On to `Cc1nc(-c2cccnc2C(C)C)c2n1CCN(C(=O)c1ccc(-c3ccnn3C(C)C)nc1)C2` [Compound C-6, 3-(3-methyl-7-{6-[1-(propan-2-yl)-1H-pyrazol-5-yl]pyridine-3-carbonyl}-5H,6H,7H,8H-imidazo[1,5-a]pyrazin-1-yl)-2-(propan-2-yl)pyridine], for which the IC50 is more than 25 µM.
